Counter-ions that a name gives are not always drawn. Activity calls are given as the source filed them. No cut-off for these calls is given here.
What was measured:
MDA-MB-231 = experiment: Antiproliferative activity against human MDA-MB-231 cells after 48 hrs by MTT assay; assay type: functional, cell-based; settings: MDA-MB-231, 48 h
[1] = Solubility of the compound in physiological saline at 1 mg; assay type: physicochemical; settings: buffer
A549 = experiment: Antiproliferative activity against human A549 cells after 48 hrs by MTT assay; assay type: functional, cell-based; settings: A549, 48 h
A2780S [2] = experiment: Cell cycle arrest in human A2780S cells assessed as accumulation at G0/G1 phase at 10 nM after 24 hrs by propidium iodide staining based flow cytometry (reference value: 44.3%); assay type: functional
[3] = Resistance index, ratio of IC50 for human HCT8/T cells to IC50 for human HCT8 cells; assay type: functional
A2780S [4] = experiment: Cell cycle arrest in human A2780S cells assessed as accumulation at G0/G1 phase at 30 nM after 24 hrs by propidium iodide staining based flow cytometry (reference value: 44.3%); assay type: functional
A2780S [5] = experiment: Induction of alpha-tubulin depolymerization in human A2780S cells at 5 to 50 nM after 24 hrs by DAPI staining based immunofluorescence microscopic method; assay type: cell-based
A2780S [6] = experiment: Antiproliferative activity against human A2780S cells after 48 hrs by MTT assay; assay type: functional, cell-based
[7] = Resistance index, ratio of IC50 for human A2780T cells to IC50 for human A2780S cells; assay type: functional
Sus scrofa = species on record: Sus scrofa; experiment: Inhibition of porcine brain tubulin polymerization preincubated for 5 mins followed by GTP addition measured every 2 mins by spectrophotometric method
A2780/Taxol = experiment: Antiproliferative activity against human A2780T cells after 48 hrs by MTT assay; assay type: functional, cell-based
HCT-8 = experiment: Antiproliferative activity against human HCT8 cells after 48 hrs by MTT assay; assay type: functional, cell-based; settings: HCT-8, 48 h
A2780S [8] = experiment: Cell cycle arrest in human A2780S cells assessed as accumulation at G2/M phase at 30 nM after 24 hrs by propidium iodide staining based flow cytometry (reference value: 15.34%); assay type: functional
Mus musculus [9] = experiment: Toxicity in Balb/c athymic nude mouse xenografted with human HCT116 cells assessed as body weight loss at 2.5 mg/kg administered once in every 2 days relative to control; assay type: organism-based; settings: in vivo, 48 h
HepG2 = experiment: Binding affinity to beta-tubulin colchicine binding site in human HepG2 cells assessed as reduction in EBI-beta-tubulin adduct formation preincubated for 2 hrs followed by EBI addition measured after 1.5 hrs by Western blot analysis; assay type: cell-based
[10] = Resistance index, ratio of IC50 for human HCT8/V cells to IC50 for human HCT8 cells; assay type: functional
A2780S [11] = experiment: Cell cycle arrest in human A2780S cells assessed as accumulation at G0/G1 phase at 3 nM after 24 hrs by propidium iodide staining based flow cytometry (reference value: 44.3%); assay type: functional
A2780S [12] = experiment: Cell cycle arrest in human A2780S cells assessed as accumulation at G2/M phase at 10 nM after 24 hrs by propidium iodide staining based flow cytometry (reference value: 15.34%); assay type: functional
HCT-116 [13] = experiment: Antiproliferative activity against human HCT116 cells after 48 hrs by MTT assay; assay type: functional, cell-based; settings: HCT-116, 48 h
MCF7 = experiment: Antiproliferative activity against human MCF7 cells after 48 hrs by MTT assay; assay type: functional, cell-based; settings: MCF7, 48 h
HCT-116 [14] = experiment: Antitumor activity against human HCT116 cells xenografted in Balb/c athymic nude mouse assessed as tumor growth inhibition at 2.5 mg/kg administered once in every 2 days measured on day 18 post treatment relative to control; assay type: functional; settings: read-out: TGI
A2780S [15] = experiment: Cell cycle arrest in human A2780S cells assessed as accumulation at S phase at 10 nM after 24 hrs by propidium iodide staining based flow cytometry (reference value: 40.36%); assay type: functional
NCI/ADR-RES = experiment: Antiproliferative activity against human MCF7/ADR cells after 48 hrs by MTT assay; assay type: functional, cell-based
L02 = experiment: Antiproliferative activity against human LO2 cells after 48 hrs by MTT assay; assay type: cell-based; settings: L02, 48 h
[16] = Antiproliferative activity against human HCT8/V cells after 48 hrs by MTT assay; assay type: functional, cell-based; settings: HCT-8, 48 h
A2780S [17] = experiment: Cell cycle arrest in human A2780S cells assessed as accumulation at G2/M phase after 24 hrs by propidium iodide staining based flow cytometry; assay type: functional
A2780S [18] = experiment: Cell cycle arrest in human A2780S cells assessed as accumulation at S phase at 3 nM after 24 hrs by propidium iodide staining based flow cytometry (reference value: 40.36%); assay type: functional
Mus musculus [19] = experiment: Toxicity in Balb/c athymic nude mouse xenografted with human HCT116 cells assessed as effect on feeding behaviour at 2.5 mg/kg administered once in every 2 days; assay type: organism-based; settings: in vivo, 48 h
Mus musculus [20] = experiment: Toxicity in Balb/c athymic nude mouse xenografted with human HCT116 cells assessed as abnormal behaviour at 2.5 mg/kg administered once in every 2 days; assay type: organism-based; settings: in vivo, 48 h
A2780S [21] = experiment: Cell cycle arrest in human A2780S cells assessed as accumulation at S phase at 30 nM after 24 hrs by propidium iodide staining based flow cytometry (reference value: 40.36%); assay type: functional
[22] = Resistance index, ratio of IC50 for human MCF7/ADR cells to IC50 for human MCF7 cells; assay type: functional
[23] = Antiproliferative activity against human HCT8/T cells after 48 hrs by MTT assay; assay type: functional, cell-based; settings: HCT-8, 48 h
HEK293 = experiment: Antiproliferative activity against HEK293 cells after 48 hrs by MTT assay; assay type: cell-based; settings: Homo sapiens, HEK293, 48 h; read-out: IC50
A2780S [24] = experiment: Cell cycle arrest in human A2780S cells assessed as accumulation at G2/M phase at 3 nM after 24 hrs by propidium iodide staining based flow cytometry (reference value: 15.34%); assay type: functional

COc1ccc(N(C)c2cc(C)nc3ccccc23)cc1NC(=O)CN1CCOCC1
IC50 (MDA-MB-231): 256 nM
solubility [1]: Insoluble

COc1ccc(N(C)c2cc(C)nc3ccccc23)cc1N
IC50 (MDA-MB-231): 3.2 nM
solubility [1]: Insoluble

COc1ccc(N(C)c2cc(C)nc3ccccc23)cc1NC(=O)CCCCl
IC50 (A549): 3.2 nM
Activity (A2780S [2]): 2.68%
Ratio IC50 [3]: 1
IC50 (MDA-MB-231): 3.9 nM
Activity (A2780S [4]): 2.3%
Activity (A2780S [5]): Active
IC50 (A2780S [6]): 2.2 nM
Ratio IC50 [7]: 1.7
solubility [1]: Soluble
inhibition (Sus scrofa): Dose-dependent effect
IC50 (A2780/Taxol): 3.7 nM
IC50 (HCT-8): 3.4 nM
Activity (A2780S [8]): 80.67%
Activity (Mus musculus [9]): < 10%
Activity (HepG2): Dose-dependent effect
Ratio IC50 [10]: 1
Activity (A2780S [11]): 27.95%
Activity (A2780S [12]): 74.62%
IC50 (HCT-116 [13]): 2.7 nM
IC50 (MCF7): 1.5 nM
inhibition in vivo at 2.5 mg/kg (HCT-116 [14]): 54.3%
Activity (A2780S [15]): 22.69%
IC50 (NCI/ADR-RES): 3.3 nM
IC50 (L02): 75.6 nM
IC50 [16]: 3.5 nM
Activity (A2780S [17]): Dose-dependent effect
Activity (A2780S [18]): 32.57%
Activity (Mus musculus [19]): Non-Toxic
Activity (Mus musculus [20]): Non-Toxic
Activity (A2780S [21]): 17.03%
Ratio IC50 [22]: 2.3
IC50 [23]: 3.5 nM
IC50 (HEK293): 45.3 nM
Activity (A2780S [24]): 39.48%

COc1ccc(N(C)c2cc(C)nc3ccccc23)cc1
IC50 (MDA-MB-231): 6.6 nM
solubility [1]: Insoluble

COc1ccc(N(C)c2cc(C)nc3ccccc23)cc1NC(=O)CCCl
IC50 (MDA-MB-231): 96.6 nM
solubility [1]: Soluble

COc1ccc(N(C)c2cc(C)nc3ccccc23)cc1NC(=O)CN1CCCC(C)C1 (stereo unspecified)
IC50 (MDA-MB-231): 394 nM
solubility [1]: Insoluble

COc1ccc(N(C)c2cc(C)nc3ccccc23)cc1NC(=O)CN(C)CCC#N
IC50 (MDA-MB-231): > 500 nM
solubility [1]: Insoluble

CCCCC(=O)Nc1cc(N(C)c2cc(C)nc3ccccc23)ccc1OC
IC50 (MDA-MB-231): 82.4 nM
solubility [1]: Insoluble

COc1ccc(N(C)c2cc(C)nc3ccccc23)cc1NC(=O)CCl
IC50 (MDA-MB-231): 6.6 nM
solubility [1]: Soluble

COc1ccc(N(C)c2cc(Cl)nc3ccccc23)cc1N
IC50 (MDA-MB-231): 43.1 nM
solubility [1]: Insoluble

COc1ccc(N(C)c2cc(C)nc3ccccc23)cc1NC(=O)CN1CCSCC1
IC50 (MDA-MB-231): > 500 nM
solubility [1]: Soluble

CSc1ccc(N(C)c2cc(C)nc3ccccc23)cc1
IC50 (MDA-MB-231): 15.5 nM
solubility [1]: Soluble

COc1cccc2c1C(=O)c1c(O)c3c(c(O)c1C2=O)C[C@@](O)(C(=O)CO)C[C@@H]3O[C@H]1C[C@H](N)[C@H](O)[C@H](C)O1 [DOXORUBICIN HYDROCHLORIDE]
IC50 (NCI/ADR-RES): 54800 nM

CCCC(=O)Nc1cc(N(C)c2cc(C)nc3ccccc23)ccc1OC
IC50 (MDA-MB-231): 58.4 nM
solubility [1]: Insoluble

COC(=O)CCCC(=O)Nc1cc(N(C)c2cc(C)nc3ccccc23)ccc1OC
IC50 (MDA-MB-231): 186 nM
solubility [1]: Insoluble

Source: ChEMBL document CHEMBL4130373, “Design, synthesis and biological evaluation of 4-anilinoquinoline derivatives as novel potent tubulin depolymerization agents” (Eur J Med Chem, 2017)
